These results are taken from patent US12370192B2, “Azole-fused pyridazin-3(2H)-one derivatives” (TAKEDA PHARMACEUTICAL COMPANY LIMITED, priority 2019, dated 2025).

Each structure is given as a SMILES string.

Assay [1] has as its target T1, human GPR139 receptor (Homo sapiens, UniProt Q6DWJ6).
T1 construct: expressed in transfected cells; host or cells: T-REx-CHO (Thermo Fisher Scientific), doxycycline-induced
T1 sequence (Q6DWJ6 1-353): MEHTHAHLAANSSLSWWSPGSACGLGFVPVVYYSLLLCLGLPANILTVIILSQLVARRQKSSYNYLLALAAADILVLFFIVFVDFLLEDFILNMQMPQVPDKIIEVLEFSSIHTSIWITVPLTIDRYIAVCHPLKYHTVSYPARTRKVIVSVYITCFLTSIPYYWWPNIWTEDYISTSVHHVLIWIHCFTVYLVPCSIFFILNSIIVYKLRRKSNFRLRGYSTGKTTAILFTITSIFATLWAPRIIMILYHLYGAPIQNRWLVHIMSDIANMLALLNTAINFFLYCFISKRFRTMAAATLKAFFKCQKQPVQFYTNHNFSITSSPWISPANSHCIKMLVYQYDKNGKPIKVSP
In words: Measurement of GPR139 Activation Via Calcium Signaling (FLIPR, T-REx-CHO cells). The class given is cell-based. The conditions noted are these: T-REx-CHO cells stably expressing human GPR139, 11-point dose response, 10 μM maximum concentration, read-out: GPR139 Potency (pEC50) (converted). The method in brief:
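Calcium flux read by FLIPR for 1 min after adding compounds (11 concentrations, maximum 10 μM) to doxycycline-induced (2 μg/mL, 17 h) T-REx-CHO cells expressing human GPR139. Cells dye-loaded 40 min at 37 °C in HBSS, 1 mM HEPES pH 7.4 with probenecid; activation reported as pEC50 from four-parameter logistic fit.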

The target of assay [2] is T1, human GPR139 receptor. In words: GPR139 Competition Binding (membrane-based, tritium-labeled ligand). The conditions noted are these: T-REx-CHO membranes with human GPR139; 6.5 nM tritium-labeled ligand; 11-point curve, 30 μM maximum concentration; read-out: GPR139 Binding Affinity (pKi) (converted). In a few lines:
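Membranes came from doxycycline-induced T-REx-CHO cells expressing human GPR139. They were incubated 20 min at room temperature with 6.5 nM tritiated ligand and compound (11 points, top 30 μM) in HEPES pH 7.3 buffer with MgCl2/CaCl2. Filter-bound counts gave Ki by four-parameter fit, reported as pKi.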

Regarding `Cc1nn(C(C)(C)C)c2cnn(CC(=O)N[C@@H](C)c3ccc(C(F)(F)F)cc3)c(=O)c12` [Example 157, (S)-2-(1-(tert-butyl)-3-methyl-4-oxo-1,4-dihydro-5H-pyrazolo[3,4-d]pyridazin-5-yl)-N-(1-(4-(trifluoromethyl)phenyl)ethyl)acetamide], the EC50 on human GPR139 receptor [1] was 126 nM. At human GPR139 receptor [2], the Ki is 234 nM.

As for `C[C@H](NC(=O)Cn1ncc2c(C3CC3)nn(C)c2c1=O)c1cccc(F)c1` [Example 148, (S)-2-(3-cyclopropyl-1-methyl-7-oxo-1,7-dihydro-6H-pyrazolo[3,4-d]pyridazin-6-yl)-N-(1-(3-fluorophenyl)ethyl)acetamide], the EC50 at human GPR139 receptor [1] is 20 nM. For the same compound, the Ki on human GPR139 receptor [2] is 589 nM.

Take `Cc1ccc([C@H](C)NC(=O)Cn2nc(C)c3c(C)nn(C(C)C)c3c2=O)cc1` [Example 21, (S)-2-(1-isopropyl-3,4-dimethyl-7-oxo-1,7-dihydro-6H-pyrazolo[3,4-d]pyridazin-6-yl)-N-(1-(p-tolyl)ethyl)acetamide]: the EC50 on human GPR139 receptor [1] was 115 nM. Moreover, the Ki at human GPR139 receptor [2] was 28.2 nM.

On to `Cc1nn(CC(=O)N[C@@H](C)c2ccc(C(F)(F)F)cc2)c(=O)c2c1cnn2C(C)(C)C` [Example 14, (S)-2-(1-(tert-butyl)-4-methyl-7-oxo-1,7-dihydro-6H-pyrazolo[3,4-d]pyridazin-6-yl)-N-(1-(4-(trifluoromethyl)phenyl)ethyl)acetamide], for which, at human GPR139 receptor [1], the EC50 is 617 nM. Further, at human GPR139 receptor [2], the Ki was 37.2 nM.

In the case of `Cc1ccc([C@H](C)NC(=O)Cn2ncc3c(c(C)nn3C)c2=O)cc1` [Example 36, (S)-2-(1,3-dimethyl-4-oxo-1,4-dihydro-5H-pyrazolo[3,4-d]pyridazin-5-yl)-N-(1-(p-tolyl)ethyl)acetamide], on human GPR139 receptor [1], the EC50 is 38.9 nM. Moreover, the Ki at human GPR139 receptor [2] is 251 nM.

On to `C[C@H](NC(=O)Cn1ncc2ccn(C)c2c1=O)c1ccccc1` [Example 153, (S)-2-(1-methyl-7-oxo-1,7-dihydro-6H-pyrrolo[2,3-d]pyridazin-6-yl)-N-(1-phenylethyl)acetamide], for which the EC50 at human GPR139 receptor [1] is 89.1 nM. Also, the Ki on human GPR139 receptor [2] was 1740 nM.

As for `Cc1nn(C(C)C)c2cnn(CC(=O)N[C@@H](C)c3ccc(OC(F)(F)F)cc3)c(=O)c12` [Example 93, (S)-2-(1-isopropyl-3-methyl-4-oxo-1,4-dihydro-5H-pyrazolo[3,4-d]pyridazin-5-yl)-N-(1-(4-(trifluoromethoxy)phenyl)ethyl)acetamide], the EC50 at human GPR139 receptor [1] was 234 nM. For the same compound, at human GPR139 receptor [2], the Ki was 389 nM.

Regarding `Cc1nn(C2CC2)c2c(=O)n(CC(=O)N3CCCC3c3ccc(Cl)cc3)ncc12` (stereo not drawn) [Example 85, 6-(2-(2-(4-chlorophenyl)pyrrolidin-1-yl)-2-oxoethyl)-1-cyclopropyl-3-methyl-1,6-dihydro-7H-pyrazolo[3,4-d]pyridazin-7-one], the EC50 at human GPR139 receptor [1] was 741 nM. The Ki on human GPR139 receptor [2] was 55 nM.

In the case of `Cc1nn(C(C)C)c2cnn(CC(=O)N[C@@H](C)c3ccc(C(F)(F)F)cc3)c(=O)c12` [Example 94, (S)-2-(1-isopropyl-3-methyl-4-oxo-1,4-dihydro-5H-pyrazolo[3,4-d]pyridazin-5-yl)-N-(1-(4-(trifluoromethyl)phenyl)ethyl)acetamide], the EC50 on human GPR139 receptor [1] is 107 nM. In addition, the Ki at human GPR139 receptor [2] is 309 nM.

`Cc1ccc([C@H](C)NC(=O)Cn2nc(C)c3c(c(C)nn3C)c2=O)cc1` [Example 113, (S)—N-(1-(p-tolyl)ethyl)-2-(1,3,7-trimethyl-4-oxo-1,4-dihydro-5H-pyrazolo[3,4-d]pyridazin-5-yl)acetamide]: the EC50 at human GPR139 receptor [1] was 151 nM. Besides, the Ki on human GPR139 receptor [2] was 178 nM.

Regarding `Cc1ccc([C@H](C)NC(=O)Cn2nc(C)c3c(C)nn(C4CC4)c3c2=O)cc1F` [Example 68, (S)-2-(1-cyclopropyl-3,4-dimethyl-7-oxo-1,7-dihydro-6H-pyrazolo[3,4-d]pyridazin-6-yl)-N-(1-(3-fluoro-4-methylphenyl)ethyl)acetamide], the EC50 on human GPR139 receptor [1] is 69.2 nM. Further, the Ki at human GPR139 receptor [2] was 0.347 nM.

With `Cc1nn(C2CC2)c2cnn(CC(=O)NC(C)c3ccc4c(c3)OCCO4)c(=O)c12` (stereo not drawn) [Example 106, 2-(1-cyclopropyl-3-methyl-4-oxo-1,4-dihydro-5H-pyrazolo[3,4-d]pyridazin-5-yl)-N-(1-(2,3-dihydrobenzo[b][1,4]dioxin-6-yl)ethyl)acetamide], at human GPR139 receptor [1], the EC50 is 57.5 nM. Besides, on human GPR139 receptor [2], the Ki was 2000 nM.

`C[C@H](NC(=O)Cn1ncc2c(C3CC3)nn(C)c2c1=O)c1c(F)cccc1Cl` [Example 150, (S)—N-(1-(2-chloro-6-fluorophenyl)ethyl)-2-(3-cyclopropyl-1-methyl-7-oxo-1,7-dihydro-6H-pyrazolo[3,4-d]pyridazin-6-yl)acetamide]: the EC50 at human GPR139 receptor [1] is 47.9 nM. The Ki on human GPR139 receptor [2] is 77.6 nM.

As to `COc1ccc([C@H](C)NC(=O)Cn2nc(C)c3c(c(C4CC4)nn3C)c2=O)cc1` [Example 121, (S)-2-(3-cyclopropyl-1,7-dimethyl-4-oxo-1,4-dihydro-5H-pyrazolo[3,4-d]pyridazin-5-yl)-N-(1-(4-methoxyphenyl)ethyl)acetamide], the EC50 at human GPR139 receptor [1] was 129 nM. In addition, the Ki on human GPR139 receptor [2] was 74.1 nM.

On to `Cc1ccc([C@H](C)NC(=O)Cn2ncc3c(ncn3C)c2=O)cc1` [Example 140, (S)-2-(1-methyl-4-oxo-1,4-dihydro-5H-imidazo[4,5-d]pyridazin-5-yl)-N-(1-(p-tolyl)ethyl)acetamide], for which, on human GPR139 receptor [1], the EC50 was 525 nM. Further, the Ki on human GPR139 receptor [2] was 30200 nM.

For the compound `Cc1cn(C2CC2)c2cnn(CC(=O)N[C@@H](C)c3ccccc3)c(=O)c12` [Example 146, (S)-2-(1-cyclopropyl-3-methyl-4-oxo-1,4-dihydro-5H-pyrrolo[2,3-d]pyridazin-5-yl)-N-(1-phenylethyl)acetamide], the EC50 at human GPR139 receptor [1] was 51.3 nM. Also, the Ki on human GPR139 receptor [2] is 34.7 nM.

Regarding `Cc1cn(C2CC2)c2cnn(CC(=O)N[C@@H](C)c3ccc(F)cc3Cl)c(=O)c12` [Example 66, (S)—N-(1-(2-chloro-4-fluorophenyl)ethyl)-2-(1-cyclopropyl-3-methyl-4-oxo-1,4-dihydro-5H-pyrrolo[2,3-d]pyridazin-5-yl)acetamide], the EC50 at human GPR139 receptor [1] is 79.4 nM. Further, the Ki on human GPR139 receptor [2] is 0.794 nM.

Turning to `[2H]C([2H])([2H])c1ccc([C@H](C)NC(=O)Cn2ncc3ccn(C)c3c2=O)cc1` [Example 174, (S)-2-(1-methyl-7-oxo-1,7-dihydro-6H-pyrrolo[2,3-d]pyridazin-1-yl)-N-(1-(4-(methyl-d3)phenyl)ethyl)acetamide], at human GPR139 receptor [1], the EC50 is 17.8 nM. Besides, the Ki at human GPR139 receptor [2] is 234 nM.

As to `Cc1nn(C)c2cnn(CC(=O)N[C@@H](C)c3c(F)cccc3F)c(=O)c12` [Example 126, (S)—N-(1-(2,6-difluorophenyl)ethyl)-2-(1,3-dimethyl-4-oxo-1,4-dihydro-5H-pyrazolo[3,4-d]pyridazin-5-yl)acetamide], the EC50 at human GPR139 receptor [1] is 324 nM. In addition, on human GPR139 receptor [2], the Ki is 955 nM.

For the compound `Cc1nn(C)c2c(=O)n(CC(=O)N[C@@H](C)c3ccc(C(F)(F)F)cn3)ncc12` [Example 60, (S)-2-(1,3-dimethyl-7-oxo-1,7-dihydro-6H-pyrazolo[3,4-d]pyridazin-6-yl)-N-(1-(5-(trifluoromethyl)pyridin-2-yl)ethyl)acetamide], on human GPR139 receptor [1], the EC50 is 214 nM. Further, the Ki at human GPR139 receptor [2] was 30200 nM.

With `Cc1ccc([C@H](C)NC(=O)Cn2ncc3c(c(C(C)C)nn3C)c2=O)cc1` [Example 51, (S)-2-(3-isopropyl-1-methyl-4-oxo-1,4-dihydro-5H-pyrazolo[3,4-d]pyridazin-5-yl)-N-(1-(p-tolyl)ethyl)acetamide], at human GPR139 receptor [1], the EC50 was 32.4 nM. Further, on human GPR139 receptor [2], the Ki is 135 nM.

With `[2H]C([2H])([2H])c1ccc([C@H](C)NC(=O)Cn2ncc3c(cnn3C(C)C)c2=O)cc1` [Example 166, (S)-2-(1-isopropyl-4-oxo-1,4-dihydro-5H-pyrazolo[3,4-d]pyridazin-5-yl)-N-(1-(4-(methyl-d3)phenyl)ethyl)acetamide], at human GPR139 receptor [1], the EC50 was 53.7 nM. Also, at human GPR139 receptor [2], the Ki was 2340 nM.

In the case of `CC(C)c1nn(CC(=O)N[C@@H](C)c2ccc(OC(F)(F)F)cc2)c(=O)c2c1cnn2-c1ccccc1` [Example 7, (S)-2-(4-isopropyl-7-oxo-1-phenyl-1,7-dihydro-6H-pyrazolo[3,4-d]pyridazin-6-yl)-N-(1-(4-(trifluoromethoxy)phenyl)ethyl)acetamide], the EC50 at human GPR139 receptor [1] was not below 10000 nM. Moreover, the Ki on human GPR139 receptor [2] is 162 nM.

Turning to `Cc1ccc([C@H](C)NC(=O)Cn2nc(C)c3c(C)nn(C4CC4)c3c2=O)cc1` [Example 22, (S)-2-(1-cyclopropyl-3,4-dimethyl-7-oxo-1,7-dihydro-6H-pyrazolo[3,4-d]pyridazin-6-yl)-N-(1-(p-tolyl)ethyl)acetamide], the EC50 on human GPR139 receptor [1] is 105 nM. Besides, the Ki at human GPR139 receptor [2] was 9.12 nM.
